Values joined by “and” are separate entries in the source; they are usually repeats but may differ in a detail not shown here. Identical values can stand only once.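 Cultured in 96-well plates, cells were exposed to test compound for 48 hours across five concentrations. Here, GI50 denotes the concentration required for 50% inhibition of growth. At the TGI there is no net growth.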
Tests used:
Assay in all cases: NCI anticancer screen, dose series, 48 h
SNB-19 CNS = system: SNB-19 CNS
COLO 205 colon = system: COLO 205 colon
HCT-15 colon = system: HCT-15 colon
A498 renal = system: A498 renal
HCC-2998 colon = system: HCC-2998 colon
NCI-H226 lung = system: NCI-H226 lung
SK-MEL-5 melanoma = system: SK-MEL-5 melanoma
HCT-116 colon = system: HCT-116 colon
IGROV1 ovarian = system: IGROV1 ovarian
SK-OV-3 ovarian = system: SK-OV-3 ovarian
MCF7 breast = system: MCF7 breast
SNB-75 CNS = system: SNB-75 CNS
RPMI-8226 leukemia = system: RPMI-8226 leukemia
DU-145 prostate = system: DU-145 prostate
MDA-MB-231 breast = system: MDA-MB-231 breast

Compound	TGI (SNB-19 CNS)	TGI (COLO 205 colon)	TGI (HCT-15 colon)	TGI (A498 renal)	TGI (HCC-2998 colon)	TGI (NCI-H226 lung)	TGI (SK-MEL-5 melanoma)	TGI (HCT-116 colon)	TGI (IGROV1 ovarian)	TGI (SK-OV-3 ovarian)	TGI (MCF7 breast)	TGI (SNB-75 CNS)	TGI (RPMI-8226 leukemia)	TGI (DU-145 prostate)	TGI (MDA-MB-231 breast)	GI50 (SNB-19 CNS)	GI50 (HCC-2998 colon)	GI50 (IGROV1 ovarian)	GI50 (MDA-MB-231 breast)	GI50 (SK-OV-3 ovarian)
Cc1cc(S(=O)(=O)Nc2n[nH]c(N)n2)c(SCC(=O)O)cc1Cl	> 10 µM	> 10 µM	> 10 µM	> 10 µM	> 10 µM	> 10 µM	> 10 µM	> 10 µM	> 10 µM	> 10 µM	> 10 µM	> 10 µM	> 10 µM	> 10 µM						
N#Cc1c(N)n(-c2cccc(C(=O)O)c2)c(=O)c2cc([N+](=O)[O-])ccc12	> 100 µM	> 100 µM	> 100 µM	> 100 µM	> 100 µM	> 100 µM	> 100 µM	> 100 µM				> 100 µM	> 100 µM	> 100 µM	> 100 µM					
O=C(/C=C/c1cc2ccccc2o1)N1CCN(c2ccccn2)CC1	> 100 µM	> 100 µM	> 100 µM	> 100 µM	> 100 µM		> 100 µM	> 100 µM	> 100 µM	> 100 µM	> 100 µM		> 100 µM	> 100 µM	> 100 µM					
NNC(=O)c1n[nH]nc1C(=O)NN	> 100 µM	> 100 µM	> 100 µM		> 100 µM		> 100 µM	> 100 µM			> 100 µM		> 100 µM	> 100 µM	> 100 µM					
CN=C1CC2c3cc(OC)c(OC)cc3CCN2C2=C1C(=O)CC(C)(C)C2 (stereo not drawn)	> 100 µM	> 100 µM		> 100 µM	> 100 µM	> 100 µM	> 100 µM	> 100 µM				> 100 µM								
CC1CN(C(=O)CN2CCC(CCCCN(C)C)CC2)c2ccccc2NC1=O (stereo not drawn)	> 100 µM	> 100 µM	> 100 µM	> 100 µM	> 100 µM	> 100 µM	> 100 µM	> 100 µM	> 100 µM	> 100 µM			> 100 µM							
O=c1c(/C=C/c2c(O)ccc3ccccc23)nnc2sc(-c3cccc(Br)c3)nn12	> 100 µM	> 100 µM	64.7 µM	> 100 µM	89 µM		37.5 µM	> 100 µM	15.8 µM	> 100 µM	84.4 µM		> 100 µM	45.3 µM						
CC(O)C1(CNc2cc(Cl)nc(N)n2)CCC1 (stereo not drawn)	> 100 µM		> 100 µM		> 100 µM	> 100 µM	> 100 µM	> 100 µM	> 100 µM	> 100 µM	> 100 µM		> 100 µM	> 100 µM	> 100 µM					
CN1CCOC(c2ccccc2)O1 (stereo not drawn)	> 100 µM	> 100 µM	> 100 µM	> 100 µM	> 100 µM	> 100 µM	> 100 µM	> 100 µM	> 100 µM	> 100 µM		> 100 µM	> 100 µM							
N#C/C1=C(\N)CCSSSC1	> 100 µM	> 100 µM	98.2 µM	58 µM	> 100 µM	65.8 µM	60.9 µM	> 100 µM	> 100 µM	> 100 µM		> 100 µM	> 100 µM							
O=[N+]([O-])c1ccc2c(c1)C1=C(CO2)Cc2ccccc2O1		30.6 µM	31.2 µM	> 100 µM	35.3 µM	> 100 µM	29.7 µM	30 µM	55.4 µM	> 100 µM		> 100 µM	> 100 µM	> 100 µM	51.4 µM					
COC(=O)c1cc2ccc(N)nc2[nH]c1=O	> 100 µM	> 100 µM	> 100 µM	> 100 µM	> 100 µM	> 100 µM	> 100 µM	> 100 µM	> 100 µM	> 100 µM	> 100 µM	> 100 µM	> 100 µM		> 100 µM					
COC(=O)/C=C(\C)CC(O)/C=C(\C)CCC=C(C)C (stereo not drawn)	> 100 µM	> 100 µM	> 100 µM	> 100 µM	> 100 µM	> 100 µM	42.7 µM	> 100 µM	> 100 µM	> 100 µM	> 100 µM	57.1 µM			> 100 µM					
COC1(OC)C(N(C)C)=C(Cl)C(=O)/C1=C/C=O	> 100 µM	> 100 µM	> 100 µM	> 100 µM	> 100 µM	> 100 µM	> 100 µM	> 100 µM	> 100 µM	> 100 µM			> 100 µM							
O=C(O)[C@@H]1CCS(=O)(=O)N1	> 100 µM	> 100 µM	> 100 µM	> 100 µM	> 100 µM		> 100 µM	> 100 µM	> 100 µM	> 100 µM	> 100 µM			> 100 µM	> 100 µM					
N#Cc1c2ccccc2cn1-c1ccc(F)cc1	> 100 µM	61.7 µM			> 100 µM	55.6 µM		62.3 µM	> 100 µM			18.9 µM	61.2 µM							
Oc1[nH]c2ccccc2c1N=NC(=S)Nc1cccc(Cl)c1	> 100 µM	> 100 µM	> 100 µM	24.7 µM	> 100 µM	55.2 µM	18.8 µM	17.3 µM	89 µM	61.1 µM	> 100 µM			> 100 µM	52.3 µM					
CSc1nc(Nc2cccc(C(F)(F)F)c2)c2c(N)nn(C)c2n1	> 100 µM	> 100 µM	> 100 µM	> 100 µM	> 100 µM	> 100 µM	> 100 µM	> 100 µM	> 100 µM	> 100 µM		> 100 µM	> 100 µM	> 100 µM	> 100 µM					
Cn1c(=O)c2c(nc(Cc3ccccc3)n2CC(=O)O)n(C)c1=O	> 100 µM		> 100 µM	> 100 µM	> 100 µM	> 100 µM	> 100 µM	> 100 µM	> 100 µM			> 100 µM		> 100 µM	> 100 µM					
CCCCCCOC(=O)/C=C/[C@]1(CO)C/C(=C/CC(C(C)C)C(C)C)C(=O)O1	22.6 µM		28.6 µM	20.6 µM	6.18 µM	16.7 µM	20.3 µM	25.9 µM	28.9 µM	37.7 µM	30.4 µM	27.7 µM	56.1 µM	37 µM						
COC(=O)c1ccccc1/C=C1\Cc2ccc(C)c(C)c2C1=O	> 100 µM	> 100 µM	> 100 µM	> 100 µM	> 100 µM	> 100 µM	> 100 µM	> 100 µM	> 100 µM		> 100 µM	> 100 µM	> 100 µM	> 100 µM						
CCC(C)OC(=O)/C(Br)=C1/OC(=O)c2ccccc2-c2ccccc21 (stereo not drawn)	> 100 µM	38.1 µM	38.5 µM	> 100 µM	39.4 µM	> 100 µM	56.2 µM	36.6 µM		> 100 µM	> 100 µM	> 100 µM	87.9 µM	> 100 µM						
CCOc1ccccc1NC(=O)C(=O)CC(=O)c1sc(Nc2nnc(-c3ccc(Cl)c(Cl)c3)o2)nc1C	> 100 µM	> 100 µM	> 100 µM	> 100 µM	> 100 µM	> 100 µM	> 100 µM	> 100 µM	> 100 µM	> 100 µM		> 100 µM	> 100 µM							
O=c1cc(-c2cccc3ccccc23)[nH]c2ncccc12	> 100 µM	0.0587 µM and 0.136 µM	10.3 µM		0.424 µM and 1.54 µM	> 100 µM		21.3 µM	> 100 µM		4.25 µM		> 100 µM	> 100 µM	> 100 µM	0.0366 µM	0.0313 µM	0.0417 µM	0.0479 µM	0.0147 µM
Cn1c(=O)n(C2(C)C[Se]C2)c2ccccc21	> 100 µM	> 100 µM	> 100 µM	> 100 µM	> 100 µM	> 100 µM	> 100 µM	> 100 µM	> 100 µM	> 100 µM		> 100 µM	> 100 µM							
Nc1ncnc2c1ncn2[C@@H]1C[C@@H]1CO	> 100 µM		> 100 µM	> 100 µM	> 100 µM	> 100 µM		> 100 µM			> 100 µM		> 100 µM		> 100 µM					
S=c1sc2c(Cl)nc(Cl)nc2n1-c1ccccc1	> 100 µM	> 100 µM	32 µM	> 100 µM	> 100 µM	> 100 µM	> 100 µM	31.1 µM	33.6 µM	> 100 µM		> 100 µM	> 100 µM							
CC12CC(c3ccccc3O1)C(C(=O)Nc1ccc(Cl)cc1Cl)C(=O)N2 (stereo not drawn)	> 100 µM	> 100 µM	> 100 µM		> 100 µM		> 100 µM	> 100 µM	50.9 µM	> 100 µM	> 100 µM		> 100 µM	> 100 µM						
CN(C)CCC(=O)c1ccccc1	> 100 µM	> 57.2 µM	46.9 µM	> 95.5 µM	> 69.6 µM	98.4 µM	> 56.9 µM	55.4 µM	> 71 µM	> 68.8 µM		> 71 µM	> 100 µM							

— PubChem BioAssay (NCI)
